{"source": "paper PMC10046037", "about": "“GABRG2 Variants Associated with Febrile Seizures” (Biomolecules, 2023)", "target": "T1, α1β3γ2 GABAA receptor, γ2Y468C variant (Homo sapiens, UniProt P14867+P18507+P28472, Y468C)", "T1 construct": "expressed in transfected cells; host or cells: HEK293T", "T1 sequence (P14867 28-456)": "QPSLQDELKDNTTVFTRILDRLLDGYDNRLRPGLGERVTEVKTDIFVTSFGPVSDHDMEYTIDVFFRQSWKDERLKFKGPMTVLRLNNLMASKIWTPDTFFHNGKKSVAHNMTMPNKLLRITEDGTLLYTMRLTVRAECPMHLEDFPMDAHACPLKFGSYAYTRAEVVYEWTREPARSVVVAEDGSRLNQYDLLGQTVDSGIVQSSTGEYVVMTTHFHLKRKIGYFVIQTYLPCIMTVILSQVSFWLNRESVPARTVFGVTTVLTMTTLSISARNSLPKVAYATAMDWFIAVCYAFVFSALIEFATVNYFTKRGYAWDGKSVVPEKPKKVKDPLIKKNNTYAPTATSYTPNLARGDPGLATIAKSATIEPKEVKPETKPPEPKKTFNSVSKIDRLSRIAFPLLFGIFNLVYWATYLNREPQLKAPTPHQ", "T1 sequence (P28472 26-473 isoform P28472-2)": "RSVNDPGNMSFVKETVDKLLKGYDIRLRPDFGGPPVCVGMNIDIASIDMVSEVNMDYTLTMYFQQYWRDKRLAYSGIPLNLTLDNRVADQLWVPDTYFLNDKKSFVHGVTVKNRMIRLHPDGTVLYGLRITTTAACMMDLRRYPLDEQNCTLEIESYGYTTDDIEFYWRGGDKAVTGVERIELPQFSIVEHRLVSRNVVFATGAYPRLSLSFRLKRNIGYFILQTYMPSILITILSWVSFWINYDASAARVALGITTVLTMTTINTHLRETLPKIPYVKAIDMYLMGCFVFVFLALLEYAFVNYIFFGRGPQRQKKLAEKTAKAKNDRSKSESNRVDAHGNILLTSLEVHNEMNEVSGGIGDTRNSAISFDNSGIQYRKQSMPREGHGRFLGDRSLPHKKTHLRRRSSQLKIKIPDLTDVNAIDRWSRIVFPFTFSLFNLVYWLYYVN", "T1 sequence (P18507 40-475 Y468C)": "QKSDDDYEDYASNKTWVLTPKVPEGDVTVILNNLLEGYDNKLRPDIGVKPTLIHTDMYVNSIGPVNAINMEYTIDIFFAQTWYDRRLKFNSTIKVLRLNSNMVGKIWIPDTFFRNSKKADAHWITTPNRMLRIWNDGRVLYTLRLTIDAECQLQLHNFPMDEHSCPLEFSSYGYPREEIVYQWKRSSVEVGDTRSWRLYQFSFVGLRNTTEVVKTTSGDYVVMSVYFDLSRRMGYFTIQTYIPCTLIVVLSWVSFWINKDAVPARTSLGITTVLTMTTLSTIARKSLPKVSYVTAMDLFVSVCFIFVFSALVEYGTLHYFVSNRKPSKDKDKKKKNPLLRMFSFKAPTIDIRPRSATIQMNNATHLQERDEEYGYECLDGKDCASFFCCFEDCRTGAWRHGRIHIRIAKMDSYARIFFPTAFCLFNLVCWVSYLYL", "assay": "Automated patch clamp of GABA-elicited currents (SyncroPatch 384PE), γ2Y468C", "assay_type": "cell-based", "conditions": "mean", "description": "The coding sequences of human α1 (GABRA1, NM_000806), β3 (GABRB3, NM_021912), and γ2 (GABRG2, NM_198904.2) GABAAR subunits were subcloned into the pcDNA3.1 expression vectors (Invitrogen, Waltham, MA, USA).\nHEK293T cells (ATCC, CRL-11268) were cultured at 37 °C in a humidified 5% CO2 incubator and maintained in Dulbecco’s modified Eagle’s medium (Invitrogen) supplemented with 10% fetal bovine serum (Life Technologies, Carlsbad, CA, USA), and 100 IU/mL of penicillin/streptomycin (Life Technologies). For the expression experiments, 4 × 10^5 cells were transfected using polyethylenimine (PEI) reagent (40 kD, Polysciences, Warrington, PA, USA) at a DNA: to transfection reagent ratio of 1:2.5 and harvested 36 h after transfection. To express WT and variant α1β3γ2 receptors, a total of 3 µg of α1, β3, and γ2 (WT or mutant) subunit cDNAs were transfected at a ratio of 1:1:1 into 60 mm culture dishes. For the mock-transfected condition, an empty pcDNA3.1 vector was added for a final cDNA transfection amount of 3 μg. For the electrophysiology experiments, 2.5 × 10^5 cells were plated in 100 mm culture dishes and transfected after 24 h with 3 μg of cDNA of each α1, β3, γ2 (wild-type or mutant) subunit, using X-tremeGENE HP DNA transfection Reagent (Roche Diagnostics, Basel, Switzerland), following the manufacturer’s protocol. Recordings were obtained forty-eight hours after transfection.\nWhole-cell patch clamp recordings were conducted according to the manufacturer’s standard procedure for the SyncroPatch 384 [31]. Whole-cell voltage-clamp recordings were performed at room temperature on HEK293T cells 48 h after transfection with GABAAR subunits, using the SyncroPatch 384PE (Nanion Technologies, Munich, Germany). Cells, at a concentration of 400,000 cells/mL, were harvested in suspension in external solution containing 140 mM of NaCl, 2 mM of CaCl2, 4 mM of KCl, 1 mM of MgCl2, 5 mM of glucose, and 10 mM of HEPES (pH 7.4 with NaOH, 298 mOsm). The cells were loaded in a multi-hole (4 holes per well) 384-well Nanion patch clamp (NPC) chip with a thick borosilicate glass bottom and an average resistance pore size of […]. Built-in electrophysiological protocols were used, and the data were digitized using PatchControl 384 (Nanion Technologies) application. Using PatchControl 384, electrophysiological parameters, such as seal resistance, capacitance, and series resistance, were determined for each well after the application of a test pulse, and subsequently monitored over time. […] The currents were normalized to the maximal response of each well, and the concentration–response curves were calculated from single-point additions. The EC50 values for each variant or wild-type receptor were calculated across multiple wells for each experimental condition."}
{"smiles": "NCCCC(=O)O", "note": "[GABA, γ-aminobutyric acid]", "values": [{"measurement": "Deactivation", "setting": "1 mM GABA for 5 ms, HEK293T, -80 mV", "result": 433.9, "unit": "ms"}, {"measurement": "IMAX (maximal GABA-evoked peak current)", "setting": "1 mM GABA for 5 ms, HEK293T", "result": 0.80, "unit": "nA"}, {"measurement": "IMAX variant/IMAX WT", "setting": "1 mM GABA", "result": 40.06, "unit": "%"}, {"measurement": "Rise Time", "setting": "10–90% rise time, 1 mM GABA for 5 ms, HEK293T", "result": 26.52, "unit": "ms"}]}
